Consider four compounds from patent US20260158026A1, “METHODS OF TREATING CANCER AND COMPOSITIONS FOR THE SAME” (MARSAL THERAPEUTICS, INC., priority 2022, published 2026).

By IC50 is commonly meant the concentration needed to halve the response being measured.

Read-outs that look alike come from different tables or passages of the source.

Data set [1] deals with Breast Cancer (MDA-MB-231). The experiment in a line: IC50 measurement, cell viability assay. The format is cell-based. The settings on record: Homo sapiens, MDA-MB-231, 96 h, after 4 days of treatment. As for the experimental part:
(§1) Negative (100% DMSO) and positive (10 mM Staurosporine in DMSO) controls were placed in columns 10 and 11, respectively. The plate was diluted with 180 μL growth media/well and 5 μL of the resulting compound solution was transferred in quadruplicate to the assay plate. For the assay plate, 3,000 cells/well were plated in a 384 well clear bottom μL plate and allowed to adhere for at least 3 hours. […] The plates were incubated for 1, 2, 3, or 4 days. ATP levels were measured after incubation. Based on the results of Example 1, Compound 1 was selected for further evaluation.

For data set [2], the system named is Colon Cancer (HT-29). The experiment in a line: IC50 measurement, cell viability assay. The following applies: Homo sapiens, HT-29, 96 h, after 4 days of treatment. The format is cell-based. The method, then:
as §1

Data set [3] relates to Lung Cancer (H1299). The experiment in a line: IC50 measurement, cell viability assay. The class given is cell-based. The following applies: Homo sapiens, NCI-H1299, 96 h, after 4 days of treatment. The method, then: as §1
Data set [4] concerns Pancreatic Cancer (MIA-PACA). The experiment in a line: IC50 measurement, cell viability assay. The format is cell-based. The following applies: Homo sapiens, MIA PaCa-2, 96 h, after 4 days of treatment. As for the experimental part:
as §1

Data set [5] deals with Patient 1 GBM cells. The experiment in a line: IC50 measurement, cell viability assay. The class given is cell-based. The settings on record: Homo sapiens. As for the experimental part:
as §1

Data set [6] relates to fibroblast cells from patient 1. The experiment in a line: IC50 measurement, cell viability assay. The class given is cell-based. The settings on record: Homo sapiens. The method, then:
(§2) Negative (100% DMSO) and positive (10 mM Staurosporine in DMSO) controls were placed in columns 10 and 11, respectively. The plate was diluted with 180 μL growth media/well and 5 μL of the resulting compound solution was transferred in quadruplicate to the assay plate. For the assay plate, 3,000 cells/well were plated in a 384 well clear bottom μL plate and allowed to adhere for at least 3 hours. […] The plates were incubated for 1, 2, 3, or 4 days. ATP levels were measured after incubation.

For data set [7], the system named is GBM cells isolated from an additional five patients. The experiment in a line: IC50 measurement, cell viability assay. The class given is cell-based. The following applies: Homo sapiens, FIG. 2. As for the experimental part: as §2
Serial dilutions in FIG. 2 show the effect of Compound 1 on GBM cells isolated from an additional five patients.

For data set [8], the system named is Patient-derived GBM cells. The experiment in a line: Long-term exposure assay. The format is cell-based, human. The following applies: 0.1 μM, incubated for 21 days, FIG. 3A. As for the experimental part:
Long-term Exposure Assay: Measurements for long-term assays were performed on days 4, 8, 14, and 21. 3,000 cells/well were plated in a 384 well plate (for day 4 assay), a 96 well plate (for day 8 assay), a 24 well plate (for day 14 assay), a 6 well plate (for day 21 assay), or a 10 cm plate (for day 30 assay) and allowed to adhere as above. Following this, media was exchanged to DMEM (without FBS+1× Penstrep) with either DMSO as control treatment or compound (at final concentration of 0.1 μM or 5 μM). Every four days, media was replaced with fresh DMEM (without FBS+1×Penstrep) comprising DMSO (control) or compound. At the end of days 4, 8, 14, and 21 cell viability assays were performed.
Patient-derived GBM cells were treated with Compound 1 at concentrations of 5 μM or 0.1 μM and incubated for 21 days. Fibroblasts were used as a control (FIG. 3B).

For data set [9], the system named is fibroblasts. The experiment in a line: Long-term exposure assay. The settings on record: 0.1 μM, 21 days, FIG. 3B. The format is cell-based, human.
In data set [10] the test system is Glioma cells. The experiment in a line: Cytotoxicity and apoptosis assays (ApoTox-Glo). The class given is cell-based, human.
The subject of data set [11] is glioma cells from patient 1. The experiment in a line: Immunostaining with Caspase 3 antibody (apoptosis marker). The class given is cell-based, human. The settings on record: compared to positive control staurosporin, FIGS. 4C and 4D.
The test system of data set [12] is glioma cells from patient 1. The experiment in a line: Immunostaining and quantification of Annexin V positive cells. The class given is cell-based, human.
For data set [13], the system named is fibroblast control. The description is as above. The format is cell-based, human.
Data set [14] deals with GBM cells. The experiment in a line: Mitochondrial membrane potential (JC1 staining). The format is cell-based, human. The settings on record: CCCP positive control, DMSO negative control; 24, 48, 72 hrs, FIGS. 5A and 5B. As for the experimental part:
FIG. 5B is a bar graph of JC1 staining for mitochondrial depolarization in GMB cells treated with DMSO (negative control), CCCP (positive control), or Compound 1 (CMPD1) at 24 hrs, 48 hrs, and 72 hrs according to Example 6.
GBM cells were treated with Compound 1, carbonyl cyanide m-chlorophenyl hydrazine (CCCP; positive control), or DMSO (negative control) and the mitochondrial membrane potential (indicative of functional status of the GBM cells) was measured and analyzed.

Data set [15] deals with GBM cells. The experiment in a line: Mitochondria vacuolization by Transmission Electron Microscopy. The class given is cell-based, human. The settings on record: 2.5 μM, 5 μM, or 10 μM; 3, 6, 12, 24, and 48 hours. The method, then: Referring to FIGS. 6A and 6B, the GBM cells were analyzed via Transmission Electron (TEM) Microscopy after 3, 6, 12, 24, and 48 hours of incubation.

Data set [16] deals with patient-derived glioma cells. The experiment in a line: siRNA knockdown of CRISPR-Cas9 hits followed by IC50 measurement. The format is cell-based, human. The method, then:
FIG. 7C is a graph of cell viability after treatment with Compound 1 for certain targets identified in FIG. 7B in patient-derived glioma cells followed by measurement of IC50 post-treatment with serial dilution of Compound 1 according to Example 8.
(§3) With reference to Step I in FIGS. 7A and 7B, whole genome CRISPR-Cas9 studies (B. Schmierer, Mol Systems Biol., 13, 945 (2017)) were carried out to identify potential targets that could explain the effect produced by Compound 1 on cancer cells. […] With reference to Step II in FIG. 7A and FIGS. 8A and 8B, after the CRISPR screening analysis was complete, the expression of identified hits were confirmed in GB cells as shown in FIG. 8A. The binding of Compound 1 to the identified hits was established via a pull-down assay using biotin labeled Compound 1 (FIG. 8B).

Data set [17] has as its system identified hits (BMPR1A, UTP23, ARHGAP33, ITSN1). The experiment in a line: Pull-down assay using biotin labeled Compound 1. The format is binding, human. The following applies: pull-down with biotin labeled Compound 1, FIG. 8B. The method, then:
as §3

The subject of data set [18] is GBM cancer cell line xenograft. The experiment in a line: GBM xenograft stereotactically implanted into the brain of nude mice. The class given is in vivo. The following applies: oral administration, versus mice not treated. The source says: A GBM cancer cell line was xenografted into 8-week old male nude mice and the tumor was allowed to develop for four weeks. The GBM cells were stereotactically implanted into the brain and allowed to grow for four weeks. After four weeks, treatment with Compound 1 via oral administration was started (Day 1). The mice were allowed to live until the ethical endpoint of the study was reached. Body weight and activity of animals were monitored continuously.

The conditions of data set [19]: previous clinical trials; cited from earlier work.
Data set [20] relates to GBM cells. The experiment in a line: Combination with FDA approved oncology drugs, cell viability. The class given is cell-based, human. The settings on record: combination with Compound 1, FIGS. 12A-C. The text has this:
The FDA approved oncology drugs included temozolomide (TMZ), ixabepilone, cladribine, enzalutamide, omacetaxine mepesuccinate, epothilones, erubulin, and latrunculin.

Regarding `Fc1ccc(C(OCCN2CCN(CCCc3ccccc3)CC2)c2ccc(F)cc2)cc1` [Compound 1, vanoxerine], the IC50 in [1] worked out at 2.3 µM; in [2], 2.4 µM; in data set [3], 2.1 µM; in data set [4], 2.4 µM; in data set [5] (96 h, after 4 days of treatment, cell viability assay, read-out: Mean IC50, Brain Cancer (Patient 1 GBM cells)), 2.2 µM; in data set [5] (Glioma cell, 96 h, serial dilution, 4 days of incubation, FIG. 1B, read-out: IC50 for glioma cells from patient 1), 4.9 µM. Besides, the IC50 was roughly 0.3 µM in data set [5] (various cell passages, FIG. 1C, range printed from about 300 nM to about 6.4 μM, read-out: IC50 for GBM cells, lower end of range over cell passages); roughly 6.4 µM in data set [5] (various cell passages, FIG. 1C, range printed from about 300 nM to about 6.4 μM, read-out: IC50 for GBM cells, upper end of range over cell passages); 13.8 µM in [6] (96 h, serial dilution, 4 days of incubation, FIG. 1B, read-out: IC50 for fibroblast cells from patient 1); 16 to 41 µM in data set [6] (various cell passages, FIG. 1D, read-out: IC50 for the fibroblasts, range over cell passages); 4.72 µM in data set [7]. Besides, in data set [8], the “Effect on GBM cells, long-term exposure” value is “eliminated the GBM cells”. For the same compound, the “Cytotoxicity towards fibroblasts, long-term exposure” value in data set [9] is recorded as “without exhibiting cytotoxicity”. The “Apoptosis (ApoTox-Glo)” value in data set [10] was “apoptosis was not initiated”. For the same compound, the “Cytotoxicity (ApoTox-Glo)” value in data set [10] is “immense cytotoxicity”. In addition, the “Apoptosis positive cells, Caspase 3 immunostaining” value in data set [11] is “did not produce apoptosis positive cells”. Also, the “Apoptosis positive cells, Annexin V” value in data set [12] and in data set [13] was “do not produce more apoptosis positive cells” in each case. Also, in data set [14], the Mitochondrial membrane potential entry is reported as “depolarization of mitochondria in a manner similar to CCCP”. Besides, the “Vacuolization of mitochondria (TEM)” value in data set [15] is on record as “induced vacuolization of mitochondria”. For the same compound, the “IC50 after knockdown of ARHGAP33 versus controls” value in data set [16] (siRNA knockdown of ARHGAP33, FIG. 7C) is recorded as “higher IC50 values”. In addition, the “IC50 after knockdown of BMPR1A versus controls” value in data set [16] (siRNA knockdown of BMPR1A, FIG. 7C) is on record as “higher IC50 values”. For the same compound, the “IC50 after knockdown of ITSN1 versus controls” value in data set [16] (siRNA knockdown of ITSN1, FIG. 7C) is “higher IC50 values”. The “Binding to the identified hits” value in data set [17] is recorded as “established”. Moreover, the Physical activity entry in data set [18] is on record as “increased physical activity”. Further, the Tumor size entry in data set [18] (FIG. 9) is listed as “reduction in tumor size”. Moreover, in data set [18] (FIG. 10), the Bodyweight result is on record as “reduced loss in bodyweight”. For the same compound, the Life span entry in [18] (FIG. 11) is recorded as “increased life span”. In addition, in data set [19], the “Safety when administered to humans” value is “establishing its safety”.
For `C/C(=C\c1csc(C)n1)[C@@H]1C[C@@H]2O[C@]2(C)CCC[C@H](C)[C@H](O)[C@@H](C)C(=O)C(C)(C)[C@@H](O)CC(=O)N1` [ixabepilone], the “Cell viability, Compound 1 in the additional presence of the named drug” value in data set [20] is “statistically significant decreases in cell viability”.
The same measure, in the same setting: as for `Nc1nc(Cl)nc2c1ncn2[C@H]1C[C@H](O)[C@@H](CO)O1` [cladribine], the entry is “statistically significant decreases in cell viability”.
On the same count and under the same terms, the value for `CNC(=O)c1ccc(N2C(=S)N(c3ccc(C#N)c(C(F)(F)F)c3)C(=O)C2(C)C)cc1F` [enzalutamide] was “statistically significant decreases in cell viability”.
